From BigSolDB 2.1

COP(=O)(NC(C)=O)SC (stereo unspecified)
Settings	solubility (mole fraction)
in acetone, 299.45 K	0.068
in acetone, 302.6 K	0.0811
in acetone, 305.2 K	0.0923
in acetone, 306.4 K	0.0986
in acetone, 309.8 K	0.119
in acetone, 311.4 K	0.131
in acetone, 313.75 K	0.149
in acetone, 315.8 K	0.167
in dichloromethane, 292.9 K	0.176
in dichloromethane, 295.2 K	0.19
in dichloromethane, 297.3 K	0.203
in dichloromethane, 298.45 K	0.21
in dichloromethane, 299.6 K	0.217
in dichloromethane, 301.05 K	0.226
in dichloromethane, 302.3 K	0.233
in dichloromethane, 303.25 K	0.241
in ethyl acetate, 307.9 K	0.035
in ethyl acetate, 310.75 K	0.0408
in ethyl acetate, 314.2 K	0.049
in ethyl acetate, 318.4 K	0.0648
in ethyl acetate, 321.55 K	0.0779
in ethyl acetate, 324.95 K	0.0965
in ethyl acetate, 327.6 K	0.118
in isopropanol, 299.3 K	0.0606
in isopropanol, 303.95 K	0.0773
in isopropanol, 306.7 K	0.0925
in isopropanol, 310.75 K	0.118
in isopropanol, 313.35 K	0.137
in isopropanol, 316.45 K	0.163
in isopropanol, 319.45 K	0.193
in isopropanol, 322 K	0.224
